Data published in patent US9120791B2, “Indolizine compounds, a process for their preparation and pharmaceutical compositions containing them” (LES LABORATOIRES SERVIER, priority 2012, dated 2015).
Counter-ions that a name gives are not always drawn. Like-named read-outs stand apart in the source and are kept apart here.

Columns and labels:
[1] = biological target: Bcl-2 protein (Homo sapiens (Human), UniProt P10415); assay: Inhibition of Bcl-2 by the fluorescence polarisation technique; format: binding; conditions: fluorescence polarisation test; concentration that inhibits fluorescence polarisation by 50%; read-out: IC50 (nM) Bcl-2 FP
Protocol: The fluorescence polarisation tests were carried out on microplates (384 wells). […] After incubation for 2 hours, the fluorescence polarisation is measured.

[2] = tested on: RS4;11 leukaemia tumour line; assay: In vitro cytotoxicity (Microculture Tetrazolium Assay, 48 hours); format: cell-based; conditions: Homo sapiens, read-out: IC50 (nM) MTT RS4
Protocol: The cytotoxicity studies were carried out on the RS4;11 leukaemia tumour line.
The cells are distributed onto microplates and exposed to the test compounds for 48 hours.

[3] = RS4;11 cells, 48 hours exposure, MTT, concentration that inhibits cell viability by 50%

Bcl-2 protein, sequence (P10415 whole entry): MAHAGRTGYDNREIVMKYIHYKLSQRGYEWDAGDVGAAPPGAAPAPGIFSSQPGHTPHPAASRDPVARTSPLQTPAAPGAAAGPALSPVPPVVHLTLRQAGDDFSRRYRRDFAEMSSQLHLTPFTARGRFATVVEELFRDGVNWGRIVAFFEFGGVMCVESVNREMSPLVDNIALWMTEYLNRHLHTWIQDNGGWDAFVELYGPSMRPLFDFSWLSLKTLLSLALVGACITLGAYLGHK

Structure (SMILES)	IC50 [1] [nM]	IC50 [2, 3] [nM]	IC50 ([2]; RS4-11, 48 h) [nM]
CSc1ccc(N(C(=O)c2cc(-c3cc(Cl)ccc3C(=O)N3Cc4ccccc4C[C@H]3CN3CCOCC3)n3c2CCCC3)c2ccc(O)cc2)cc1C(F)(F)F [Example 54, 3-{5-Chloro-2-[((3S)-3-(4-morpholinylmethyl)-3,4-dihydro-2(1H)-isoquinolinyl)carbonyl]phenyl}-N-(4-hydroxyphenyl)-N-[4-(methylsulphanyl)-3-(trifluoromethyl)phenyl]-5,6,7,8-tetrahydro-1-indolizine carboxamide hydrochloride]	180	106	
COc1ccc(C(=O)N2Cc3ccccc3C[C@H]2CN2CCOCC2)c(-c2cc(C(=O)N(c3ccc(O)cc3)c3ccc4c(ccn4C)c3)c3ccccn23)c1 [Example 71, N-(4-Hydroxyphenyl)-3-{5-methoxy-2-[((3S)-3-(4-morpholinylmethyl)-3,4-dihydro-2(1H)-isoquinolinyl)carbonyl]phenyl}-N-(1-methyl-1H-indol-5-yl)-1-indolizine carboxamide hydrochloride]	21	24.4	
Cn1ccc2cc(N(C(=O)c3cc(-c4cc5c(cc4C(=O)N4Cc6ccccc6C[C@H]4CN4CCOCC4)OCO5)n4c3COCC4)c3ccc(O)cc3)ccc21 [Example 80, N-(4-Hydroxyphenyl)-N-(1-methyl-1H-indol-5-yl)-6-{6-[((3S)-3-(4-morpholinylmethyl)-3,4-dihydro-2(1H)-isoquinolinyl)carbonyl]-1,3-benzodioxol-5-yl}-3,4-dihydro-1H-pyrrolo[2,1-c][1,4]oxazine-8-carboxamide]	18	18.8	
CCN1CCc2cc(N(C(=O)c3cc(-c4cc5c(cc4C(=O)N4Cc6ccccc6C[C@H]4CN4CCOCC4)OCO5)n4ccccc34)c3ccc(O)cc3)ccc21 [Example 63, N-(1-Ethyl-2,3-dihydro-1H-indol-5-yl)-N-(4-hydroxyphenyl)-3-{6-[((3S)-3-(4-morpholinylmethyl)-3,4-dihydro-2(1H)-isoquinolinyl)carbonyl]-1,3-benzodioxol-5-yl}-1-indolizine carboxamide hydrochloride]	21	18.8	
Cn1ncc2cc(N(C(=O)c3cc(-c4cc(Cl)ccc4C(=O)N4Cc5ccccc5C[C@H]4CN4CCOCC4)n4c3COCC4)c3ccc(O)cc3)ccc21 [Example 101, 6-(5-Chloro-2-{[(3S)-3-(morpholin-4-ylmethyl)-3,4-dihydroisoquinolin-2(1H)-yl]carbonyl}phenyl)-N-(4-hydroxyphenyl)-N-(1-methyl-1H-indazol-5-yl)-3,4-dihydro-1H-pyrrolo[2,1-c][1,4]oxazine-8-carboxamide hydrochloride]	5	22.1	
O=C(c1cc(-c2cc(Cl)ccc2C(=O)N2Cc3ccccc3C[C@H]2CN2CCOCC2)n2c1CCCC2)N(c1ccc(O)cc1)c1cccc(F)c1 [Example 116, 3-(5-Chloro-2-{[(3S)-3-(morpholin-4-ylmethyl)-3,4-dihydroisoquinolin-2(1H)-yl]carbonyl}phenyl)-N-(3-fluorophenyl)-N-(4-hydroxyphenyl)-5,6,7,8-tetrahydroindolizine-1-carboxamide hydrochloride]	10	43.6	
O=C(c1cc(-c2cc3c(cc2C(=O)N2Cc4ccccc4C[C@H]2CN2CCOCC2)OCO3)n2c1CCCC2)N(c1ccc(O)cc1)c1ccc(O)cc1 [Example 6, N,N-bis(4-Hydroxyphenyl)-3-{6-[((3S)-3-(4-morpholinylmethyl)-3,4-dihydro-2(1H)-isoquinolinyl)carbonyl]-1,3-benzodioxol-5-yl}-5,6,7,8-tetrahydro-1-indolizine carboxamide hydrochloride]	15		30
O=C(c1cc(-c2cc(Cl)ccc2C(=O)N2Cc3ccccc3C[C@H]2CN2CCOCC2)n2c1CCCC2)N(c1ccc(O)cc1)c1cccc(Cl)c1 [Example 131, 3-(5-Chloro-2-{[(3S)-3-(morpholin-4-ylmethyl)-3,4-dihydroisoquinolin-2(1H)-yl]carbonyl}phenyl)-N-(3-chlorophenyl)-N-(4-hydroxyphenyl)-5,6,7,8-tetrahydroindolizine-1-carboxamide hydrochloride]	30	88.4	
O=C(c1cc(-c2cc3c(cc2C(=O)N2Cc4ccccc4C[C@H]2CN2CCOCC2)OCO3)n2c1CCCC2)N(c1ccc(O)cc1)c1ccc(OC(F)(F)F)cc1 [Example 5, N-(4-Hydroxyphenyl)-3-{6-[((3S)-3-(4-morpholinylmethyl)-3,4-dihydro-2(1H)-isoquinolinyl)carbonyl]-1,3-benzodioxol-5-yl}-N-[4-(trifluoromethoxy)phenyl]-5,6,7,8-tetrahydro-1-indolizine carboxamide hydrochloride]	51	98	
Cn1ccc2cc(N(C(=O)c3cc(-c4cc(Cl)ccc4C(=O)N4Cc5ccccc5C[C@H]4CN4CCOCC4)n4c3CCCC4)c3ccc(O)cc3)cnc21 [Example 103, 3-(5-Chloro-2-{[(3S)-3-(morpholin-4-ylmethyl)-3,4-dihydroisoquinolin-2(1H)-yl]carbonyl}phenyl)-N-(4-hydroxyphenyl)-N-(1-methyl-1H-pyrrolo[2,3-b]-pyridin-5-yl)-5,6,7,8-tetrahydroindolizine-1-carboxamide]	6	16.8	
CCN(CCOC)C[C@@H]1Cc2ccccc2CN1C(=O)c1ccc(Cl)cc1-c1cc(C(=O)N(c2ccc(O)cc2)c2ccc3c(ccn3C)c2)c2n1CCCC2 [Example 110, 3-(5-Chloro-2-{[(3S)-3-{[ethyl(2-methoxyethyl)amino]methyl}-3,4-dihydroisoquinolin-2(1H)-yl]carbonyl}phenyl)-N-(4-hydroxyphenyl)-N-(1-methyl-1H-indol-5-yl)-5,6,7,8-tetrahydroindolizine-1-carboxamide hydrochloride]	29	129	
O=C(c1cc(-c2cc3c(cc2C(=O)N2Cc4ccccc4C[C@H]2CN2CCN(CC(F)(F)F)CC2)OCO3)n2c1CCCC2)N(c1ccccc1)c1ccc(O)cc1 [Example 127, N-(4-Hydroxyphenyl)-N-phenyl-3-(6-{[(3S)-3-{[4-(2,2,2-trifluoroethyl)-piperazin-1-yl]methyl}-3,4-dihydroisoquinolin-2(1H)-yl]carbonyl}-1,3-benzodioxol-5-yl)-5,6,7,8-tetrahydroindolizine-1-carboxamide hydrochloride]	26	129	
CN1CC2(CC2)c2cc(N(C(=O)c3cc(-c4cc(Cl)ccc4C(=O)N4Cc5ccccc5C[C@H]4CN4CCOCC4)n4c3CCCC4)c3ccc(O)cc3)ccc21 [Example 45, 3-{5-Chloro-2-[((3S)-3-(4-morpholinylmethyl)-3,4-dihydro-2(1H)-isoquinolinyl)carbonyl]phenyl}-N-(4-hydroxyphenyl)-N-(1′-methyl-1′,2′-dihydrospiro[cyclopropane-1,3′-indol]-5′-yl)-5,6,7,8-tetrahydro-1-indolizine carboxamide]	47	76.8	
CN1CC(C)(C)c2cc(N(C(=O)c3cc(-c4cc(Cl)ccc4C(=O)N4Cc5ccccc5C[C@H]4CN4CCOCC4)n4c3CCCC4)c3ccc(O)cc3)ccc21 [Example 49, 3-{5-Chloro-2-[((3S)-3-(4-morpholinylmethyl)-3,4-dihydro-2(1H)-isoquinolinyl)carbonyl]phenyl}-N-(4-hydroxyphenyl)-N-(1,3,3-trimethyl-2,3-dihydro-1H-indol-5-yl)-5,6,7,8-tetrahydro-1-indolizine carboxamide]	45	169	
Cn1ccc2cc(N(C(=O)c3cc(-c4cc5c(cc4C(=O)N4Cc6ccccc6C[C@H]4CN4CCOCC4)OCCO5)n4ccccc34)c3ccc(O)cc3)ccc21 [Example 70, N-(4-Hydroxyphenyl)-N-(1-methyl-1H-indol-5-yl)-3-{7-[((3S)-3-(4-morpholinylmethyl)-3,4-dihydro-2(1H)-isoquinolinyl)carbonyl]-2,3-dihydro-1,4-benzodioxin-6-yl}-1-indolizine carboxamide hydrochloride]	19	14	
Cc1ccc(C(=O)N2Cc3ccccc3C[C@H]2CN2CCOCC2)c(-c2cc(C(=O)N(c3ccc(O)cc3)c3ccc4c(ccn4C)c3)c3n2CCCC3)c1 [Example 95, N-(4-Hydroxyphenyl)-N-(1-methyl-1H-indol-5-yl)-3-(5-methyl-2-{[(3S)-3-(morpholin-4-ylmethyl)-3,4-dihydroisoquinolin-2(1H)-yl]carbonyl}phenyl)-5,6,7,8-tetrahydroindolizine-1-carboxamide hydrochloride]	6	13.5	
CN(C)C[C@@H]1Cc2ccccc2CN1C(=O)c1ccc(Cl)cc1-c1cc(C(=O)N(c2ccc(O)cc2)c2ccc3c(ccn3C)c2)c2n1CCCC2 [Example 52, 3-{5-Chloro-2-[((3S)-3-[(dimethylamino)methyl]-3,4-dihydro-2(1H)-isoquinolinyl)carbonyl]phenyl}-N-(4-hydroxyphenyl)-N-(1-methyl-1H-indol-5-yl)-5,6,7,8-tetrahydro-1-indolizine carboxamide hydrochloride]	16	19.8	
Cn1ncc2cc(N(C(=O)c3cc(-c4cc5c(cc4C(=O)N4Cc6ccccc6C[C@H]4CN4CCOCC4)OCO5)n4c3CCCC4)c3ccc(O)cc3)ccc21 [Example 94, N-(4-Hydroxyphenyl)-N-(1-methyl-1H-indazol-5-yl)-3-(6-{[(3S)-3-(morpholin-4-ylmethyl)-3,4-dihydroisoquinolin-2(1H)-yl]carbonyl}-1,3-benzodioxol-5-yl)-5,6,7,8-tetrahydroindolizine-1-carboxamide hydrochloride]	3	8.16	
